# Literature values in patent US20250275937A1, “Methods For Reducing Negative Effects Of Alcohol Consumption” (Honed Life Sciences, LLC, priority 2018, published 2025).
# Key:
# [1] = system: acute alcohol (EtOH) intoxication; details: rats
# [2] = system: GABA receptors
# [3] = system: oxidative stress and liver fibrogenesis; details: mice
Action on acute EtOH-induced potentiation of GABA receptors [2],SMILES,"Counteracting acute alcohol (EtOH) intoxication and withdrawal signs (tolerance, increased anxiety, seizure susceptibility) [1]",Effect on oxidative stress and liver fibrogenesis [3]
antagonizing,"O=C1c2c(O)cc(O)cc2O[C@H](c2cc(O)c(O)c(O)c2)[C@H]1O [DHM, dihydromyricetin]",highly effective,
,"O=C(O)c1cc(C(=O)O)c2c(n1)C(=O)C(=O)c1cc(C(=O)O)[nH]c1-2 [PQQ, pyrroloquinoline quinone]",,suppresses oxidative stress and liver fibrogenesis
